What was measured:
Oprm1^−/− mice [1] = assay: Behavioral tests of social, repetitive and anxious behavior (oral NaBr, KBr; data not shown); settings: mouse, in vivo
Procedure: (§1) Mice were treated with vehicle (NaCl 0.9%; ip, 10 or 20 ml/kg), NaBr (Sigma-Aldrich, Saint-Quentin Fallavier, France) administered either chronically (once a day, 10, 30, 70, 125, 250 and 500 mg/kg; i.p. or per os, in a volume of 20 ml/kg—except for combination with VU0155041: […]) or acutely (250 mg/kg, 20 ml/kg), KBr (Sigma-Aldrich, Saint-Quentin Fallavier, France; 145 mg/kg; i.p., 20 ml/kg), bumetanide (R&D systems, Minneapolis, USA, 0.5 and 2 mg/kg; i.p., 20 ml/kg) or VU0155041 (Cayman Chemicals, Ann Arbor, USA, once a day, i.p., 1 mg/kg, 10 ml/kg). […] When treatment was given chronically, behavioral testing started 8 days after beginning of daily administration. Treatment was maintained for 8 to 18 consecutive days (see timelines in FIGS. 1 and 4), allowing thorough behavioral phenotyping. On testing days, or when treatment was given acutely, drugs (or vehicle) were administered 30 min before behavioral assays.
(§2) Also, we assessed the behavioral effects of chronic administration of another bromide salt, KBr.

[2] = dose of KBr equivalent to 250 mg/kg NaBr; pilot experiments
Source text: as §2

Oprm1^−/− mice [3] = assay: Direct social interaction test; type: in vivo, mouse; settings: for social interaction in wild-type controls: Oprm1+/+ mice
Procedure: as §1
When assessing effects of chronic administration, experiments were performed successively (timelines in FIGS. 1 and 4) (51, 60). Testing order was chosen to minimize the incidence of anxiety on later assays. Direct social interaction and novelty suppressed feeding were performed in 4 equal square arenas (open fields, 50×50 cm) separated by 35 cm-high opaque grey Plexiglas walls over a white Plexiglas platform (View Point, Lyon, France). Stimulus mice used for the three-chamber test were 8-14-week-old grouped-housed male or female wild-type mice, socially naive to the experimental animals.
Direct social interaction test. On testing day, a pair of unfamiliar mice (not cage mates, age-, sex- and treatment-matched) was introduced in each arena for 10 min (15 lx). Each arena received a black plastic floor (transparent to infrared). […] The mean duration of nose and paw contacts was calculated from previous data (61-63).

Oprm1^−/− mice [4] = assay: Three-chamber social preference test; type: in vivo, mouse
Procedure: as §1
Three-chamber social preference test. The test apparatus consisted of a transparent acrylic box (exterior walls blinded with black plastic film); partitions divided the box into three equal chambers (40×20×22.5 cm). Two sliding doors (8×5 cm) allowed transitions between chambers. Cylindrical wire cages (18×9 cm, 0.5 cm diameter-rods spaced 1 cm apart) were used to contain the mouse interactor and object (soft-toy mouse). The test was performed in low-light conditions (15 lx) to minor anxiety. Stimulus wild-type mice were habituated to confinement in wire cages for 2 days before the test (20 min/day). On testing day, the experimental animal was introduced to the middle chamber and allowed to explore the whole apparatus for a 10-min habituation phase (wire cages empty) after the sliding doors were raised. The experimental mouse was then confined back in the middle-chamber while the experimenter introduced an unfamiliar wild type age and sex-matched animal into a wire cage in one of the side-chambers and a soft toy mouse (8×10 cm) in the second wire cage as a control for novelty. Then the experimental mouse was allowed to explore the apparatus for a 10-min interaction phase. The time spent in each chamber, the time spent in nose contact with each wire cage (empty: habituation; containing a mouse or a toy: interaction), as well as the number of these nose contacts were scored a posteriori on video recordings using an ethological keyboard (Labwatcher®, View Point, Lyon, France) by trained experimenters. […] The relative position of stimulus mice (versus toy) was counterbalanced between groups.

Oprm1^−/− mice [5] = assay: Tail-immersion test; type: in vivo, mouse; settings: 50° C., NaBr 70 mg/kg, VU0155041 1 mg/kg, alone or combined, chronic
Procedure: as §1
Tail-immersion test. Nociceptive thresholds were assessed by immersing the tail of the mice (5 cm from the tip) successively into water baths at 48° C., 50° C. and 52° C. The latency to withdraw the tail was measured at each temperature, with a cutoff of 10 s.

Oprm1^−/− mice [6] = assay: Y-maze exploration; type: in vivo, mouse
Procedure: as §1
Y-maze exploration. Spontaneous alternation behavior was used to assess perseverative behavior (65-67). Each Y-maze consisted of three connected Plexiglas arms (15×15×17 cm) covered with distinct wall patterns (15 lx). Floors were covered with lightly sprayed fresh sawdust to limit anxiety. Each mouse was placed at the center of a maze and allowed to freely explore this environment for 5 min. The pattern of entries into each arm was quoted on video-recordings. Spontaneous alternations (SPA), i.e. successive entries into each arm forming overlapping triplet sets, alternate arm returns (AAR) and same arm returns (SAR) were scored, and the percentage of SPA, AAR and SAR was calculated as following: total/(total arm entries−2)*100.

rodent models of ASD = settings: preclinical studies; cited from earlier work
Oprm1^−/− mice [7] = assay: Novelty-suppressed feeding; type: in vivo, mouse; settings: chronic NaBr (since the lowest dose tested) or bumetanide
Procedure: as §1
Novelty-suppressed feeding. Novelty-suppressed feeding (NSF) was measured in 24-hr food-deprived mice, isolated in a standard housing cage for 30 min before individual testing. Three pellets of ordinary lab chow were placed on a white tissue in the center of each arena, lit at 60 lx. Each mouse was placed in a corner of an arena and allowed to explore for a maximum of 15 min. Latency to feed was measured as the time necessary to bite a food pellet. Immediately after an eating event, the mouse was transferred back to home cage (free from cage-mates) and allowed to feed on lab chow for 5 min. Food consumption in the home cage was measured.

patients = settings: cited from earlier work
Oprm1^−/− mice [8] = assay: Motor stereotypies; type: in vivo, mouse
Procedure: as §1
Motor stereotypies. To detect motor stereotypies in mutant versus wild-type animals, mice were individually placed in clear standard home cages (21×11×17 cm) filled with 3-cm deep fresh sawdust for 10 min (64). Light intensity was set at 30 lux. Trained experimenters scored numbers of head shakes, as well as rearing, burying, grooming, circling episodes and total time spent burying by direct observation.

Oprm1^−/− mice [9] = assay: Marble-burying; type: in vivo, mouse; settings: Oprm1−/− mice; chronic NaBr 10-500 mg/kg or bumetanide 0.5 and 2 mg/kg
Procedure: as §1
Marble-burying. Marble burying was used as a measure of perseverative behavior (68). Mice were introduced individually in transparent cages (21×11×17 cm) containing 20 glass marbles (diameter: 1.5 cm) evenly spaced on 4-cm deep fresh sawdust. To prevent escapes, each cage was covered with a filtering lid. Light intensity in the room was set at 40 lux. The animals were removed from the cages after 15 min, and the number of marbles buried more than half in sawdust was quoted.

[10] = Oprm1−/− mice, NaBr 70 mg/kg, VU0155041 1 mg/kg, alone or combined, once daily, chronic
[11] = Oprm1−/− mice, chronic once daily, NaBr 10-500 mg/kg (effect from 125 mg/kg) or bumetanide 0.5 and 2 mg/kg, D9
[12] = Oprm1−/− mice, one week after cessation of chronic treatment (NaBr over 70 mg/kg, highest doses; bumetanide depending on the dose)
[13] = chronic NaBr 10-500 mg/kg or bumetanide 0.5 and 2 mg/kg
[14] = chronic NaBr (since lowest dose, 10 mg/kg) or bumetanide 0.5 and 2 mg/kg
[15] = Oprm1−/− mice, chronic NaBr 10-500 mg/kg or bumetanide 0.5 and 2 mg/kg

[Br-].[K+] [KBr, potassium bromide]
social, repetitive and anxious behavior, compared with NaBr treatment (Oprm1^−/− mice [1]): fully replicated, if not exceeded, by KBr | toxicity [2]: toxic

O=C(Nc1cc(Cl)cc(Cl)c1)C1CCCC[C@H]1C(=O)O (stereo partly shown) [VU0155041]
duration of nose contacts (Oprm1^−/− mice [3]; [10]): partially rescued the duration of their nose contacts | grooming episodes after social contact (Oprm1^−/− mice [3]; [10]): suppressed grooming episodes after a social contact | effect in the social interaction test, pilot experiment (Oprm1^−/− mice [3]; liminal dose of VU0155041 (1 mg/kg i.p.)): no detectable effect in the social interaction test | frequency of nose contacts with the mouse versus the toy (Oprm1^−/− mice [4]; NaBr 70 mg/kg or VU0155041 1 mg/kg, once daily, chronic): sufficient to restore more frequent nose contacts with the mouse versus the toy | duration of nose contacts with the mouse versus the toy (Oprm1^−/− mice [4]; NaBr 70 mg/kg, VU0155041 1 mg/kg, alone or combined, once daily, chronic): increased the duration of nose contacts with the mouse to that of the toy | flicking latency (nociceptive threshold) (Oprm1^−/− mice [5]): ineffective | perseverative same arm returns (Oprm1^−/− mice [6]; chronic VU0155041 1 mg/kg): sufficient to suppress perseverative same arm returns

NC[C@H](CC(=O)O)c1ccc(Cl)cc1 [arbaclofen]
autistic-like behaviors / phenotype in animal models (rodent models of ASD): improve autistic-like behaviors in animal models

CCCCNc1cc(C(=O)O)cc(S(N)(=O)=O)c1Oc1ccccc1 [bumetanide]
social interaction in wild-type controls (Oprm1^−/− mice [3]; chronic once daily, NaBr 10-500 mg/kg or bumetanide 0.5 and 2 mg/kg): showed deleterious effects on social interaction parameters in WT controls | social interaction in wild-type controls (Oprm1^−/− mice [3]; chronic once daily, NaBr 10-500 mg/kg or bumetanide 0.5 and 2 mg/kg, listed as Bumetanide): at the highest dose, it impaired social interaction in wild-type controls | social interaction deficit (Oprm1^−/− mice [3]; Oprm1−/− mice, chronic once daily i.p., NaBr 10-500 mg/kg or bumetanide 0.5 and 2 mg/kg, D9): had only partial effects | number of nose contacts (Oprm1^−/− mice [3]; Oprm1−/− mice, chronic once daily, NaBr 10-500 mg/kg (effect from 125 mg/kg) or bumetanide 0.5 and 2 mg/kg (effect at low dose), D9): increased the number of nose contacts | mean duration of nose contacts (Oprm1^−/− mice [3]; [11]): failed to increase significantly the duration of nose contacts | mean duration of paw contacts (Oprm1^−/− mice [3]; [11]): failed to increase significantly | number of paw contacts (Oprm1^−/− mice [3]; [11]): failed to increase significantly | grooming after social contact (Oprm1^−/− mice [3]; Oprm1−/− mice, chronic once daily, NaBr 10-500 mg/kg or bumetanide 0.5 and 2 mg/kg, D9): suppressed grooming episodes, notably those occurring after social contact, since the lowest dose tested | duration of nose contacts (Oprm1^−/− mice [3]; [12]): beneficial effects of bumetanide were still detectable | grooming after social contact (Oprm1^−/− mice [3]; [12]): still detectable | number of following episodes (Oprm1^−/− mice [3]; chronic once daily, NaBr 10-500 mg/kg (both mouse lines) or bumetanide (at low dose), D9): increased | latency to eat (Oprm1^−/− mice [7]; Oprm1−/− mice): had no detectable effect on either latency to eat | food intake (Oprm1^−/− mice [7]; both mouse lines): had no detectable effect | autistic behavior in small cohorts of patients (patients): relieve autistic behavior in small cohorts of patients | clinical benefit in a larger clinical trial (patients): failed to be confirmed in a larger clinical trial, except for a reduction of repetitive behavior | social preference ratio (Oprm1^−/− mice [4]; [13]): significant but partial recovery of social preference ratio | duration of nose contacts with the mouse versus the toy (Oprm1^−/− mice [4]; [14]): dose-dependently increased the duration of nose contacts with the mouse, but failed to reduce the duration of nose contacts with the toy | number of nose contacts with the mouse versus the toy (Oprm1^−/− mice [4]; [14]): at the lowest dose restored a preference for making more frequent nose contacts with the mouse over the toy | number of head shakes (Oprm1^−/− mice [8]; [15]): suppressed circling and head shakes in mutant mice | stereotypic circling episodes (Oprm1^−/− mice [8]; [15]): suppressed circling and head shakes in mutant mice | number of rearing episodes (Oprm1^−/− mice [8]; both mouse lines (Oprm1−/− and Oprm1+/+), chronic NaBr or bumetanide): reduced the number of rearing episodes in both mouse lines | autistic-like behaviors / phenotype in animal models (rodent models of ASD): improve autistic-like phenotype in rodent models of ASD | excessive marble burying (Oprm1^−/− mice [9]): failed to suppress excessive marble burying in Oprm1^−/− mice | perseverative same arm returns (Oprm1^−/− mice [6]; [13]): globally failed to suppress those

Reference: US20240366539A1, “METHODS FOR TREATING AUTISM SPECTRUM DISORDERS” (INSTITUT NATIONAL DE LA SANTÉ ET DE LA RECHERCHE MÉDICALE, priority 2021, published 2024)
